Results reported in ChEMBL document CHEMBL1909046, “DrugMatrix in vitro pharmacology data”.

Assays:
[1] = target: Mitogen-activated protein kinase 3 (Homo sapiens, UniProt P27361); assay: DRUGMATRIX: Protein Serine/Threonine Kinase, ERK1 enzyme inhibition (substrate: Myelin Basic Protein); design: species or system Escherichia coli; conditions: Not Active = under 50% inhibition at 10 µM
Histamine H2 receptor = Histamine H2 receptor (Homo sapiens, UniProt P25021); type: cell membranes, CHO-K1, Membrane; conditions: cho-k1; further: in other assays of this panel Not Active means under 50% inhibition at 10 µM
[2] = target: Delta-type opioid receptor (Homo sapiens, UniProt P41143); type: cell membranes, Membrane; conditions: hek293; further: in other assays of this panel Not Active means under 50% inhibition at 10 µM
Carbonic anhydrase 2 = Carbonic anhydrase 2 (Homo sapiens, UniProt P00918); assay: DRUGMATRIX: Carbonic Anhydrase II enzyme inhibition (substrate: 4-Nitrophenyl acetate (4-NPA)); type: tissue-based; conditions: erythrocyte; Not Active = under 50% inhibition at 10 µM
[3] = DRUGMATRIX: Calcium Channel Type L, Dihydropyridine radioligand binding (ligand: [3H] Nitrendipine); type: cell membranes, Rattus norvegicus, Wistar, Cerebral cortex, Membrane; conditions: Not Active = under 50% inhibition at 10 µM
[4] = DRUGMATRIX: Imidazoline I2, Central radioligand binding (ligand: [3H] Idazoxan); type: cell membranes, Rattus norvegicus, Wistar, Cerebral cortex, Membrane; conditions: Not Active = under 50% inhibition at 10 µM
[5] = target: cGMP-specific 3',5'-cyclic phosphodiesterase (Homo sapiens, UniProt O76074); assay: DRUGMATRIX: Phosphodiesterase PDE5 enzyme inhibition (substrate: [3H]cGMP + cGMP); type: tissue-based, Platelet; conditions: platelet; Not Active = under 50% inhibition at 10 µM

Chain of Delta-type opioid receptor (P41143 whole entry): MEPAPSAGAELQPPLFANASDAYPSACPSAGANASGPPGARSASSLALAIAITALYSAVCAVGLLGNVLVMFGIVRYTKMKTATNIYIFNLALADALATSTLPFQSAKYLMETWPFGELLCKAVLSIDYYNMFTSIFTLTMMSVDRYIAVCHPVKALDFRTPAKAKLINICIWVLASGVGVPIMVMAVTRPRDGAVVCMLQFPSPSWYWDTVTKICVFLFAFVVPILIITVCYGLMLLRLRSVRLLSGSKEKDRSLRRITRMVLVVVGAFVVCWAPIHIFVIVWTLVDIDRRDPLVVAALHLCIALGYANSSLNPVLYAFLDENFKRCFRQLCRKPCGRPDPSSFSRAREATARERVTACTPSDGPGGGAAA
Chain of Histamine H2 receptor (P25021 whole entry): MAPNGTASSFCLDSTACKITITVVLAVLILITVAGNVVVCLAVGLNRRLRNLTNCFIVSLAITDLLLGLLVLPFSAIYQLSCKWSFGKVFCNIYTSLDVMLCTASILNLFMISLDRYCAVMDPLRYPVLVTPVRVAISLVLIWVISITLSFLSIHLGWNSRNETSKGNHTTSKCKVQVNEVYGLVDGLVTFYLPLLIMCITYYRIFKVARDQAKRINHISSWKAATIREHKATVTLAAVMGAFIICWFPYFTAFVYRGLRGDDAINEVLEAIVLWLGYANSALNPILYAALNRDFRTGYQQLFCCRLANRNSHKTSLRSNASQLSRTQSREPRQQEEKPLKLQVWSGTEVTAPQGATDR
Chain of Mitogen-activated protein kinase 3 (P27361 whole entry): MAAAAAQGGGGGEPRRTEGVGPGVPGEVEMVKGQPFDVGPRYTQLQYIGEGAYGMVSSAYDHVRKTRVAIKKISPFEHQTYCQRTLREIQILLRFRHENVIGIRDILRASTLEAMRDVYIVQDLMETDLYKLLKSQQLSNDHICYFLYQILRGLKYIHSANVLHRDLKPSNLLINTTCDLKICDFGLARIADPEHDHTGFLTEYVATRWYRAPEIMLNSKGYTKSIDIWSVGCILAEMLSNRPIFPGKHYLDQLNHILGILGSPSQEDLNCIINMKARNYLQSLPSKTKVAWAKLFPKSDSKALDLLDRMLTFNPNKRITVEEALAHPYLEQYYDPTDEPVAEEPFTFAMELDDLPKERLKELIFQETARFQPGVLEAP

CC(C)=CCC/C(C)=C/CO [GERANIOL]
Not Active: IC50 [1] | IC50 (Histamine H2 receptor) | IC50 [2] | IC50 (Carbonic anhydrase 2) | IC50 [3] | Ki [3] | IC50 [4] | Ki [4] | IC50 [5]

CCCOc1ccc(C(=O)OCCN(CC)CC)cc1N [PROPARACAINE]
Not Active: IC50 [1] | IC50 (Histamine H2 receptor) | IC50 [2] | IC50 (Carbonic anhydrase 2) | IC50 [3] | Ki [3] | IC50 [4] | Ki [4] | IC50 [5]

O=C(O)c1cccnc1Nc1cccc(C(F)(F)F)c1 [NIFLUMIC ACID]
Not Active: IC50 [1] | IC50 (Histamine H2 receptor) | IC50 [2] | IC50 (Carbonic anhydrase 2) | IC50 [3] | Ki [3] | IC50 [4] | Ki [4] | IC50 [5]

CN1[C@@H]2CC[C@H]1C[C@@H](OC(=O)C(CO)c1ccccc1)C2 (stereo partly specified) [ATROPINE]
Not Active: IC50 [1] | IC50 (Histamine H2 receptor) | IC50 [2] | IC50 (Carbonic anhydrase 2) | IC50 [3] | Ki [3] | IC50 [4] | Ki [4] | IC50 [5]

C#CC1(O)CC[C@H]2[C@@H]3CCC4=CC(=O)CC[C@@H]4[C@H]3CC[C@@]21CC (stereo partly specified) [NORGESTREL]
Not Active: IC50 [1] | IC50 (Histamine H2 receptor) | IC50 [2] | IC50 (Carbonic anhydrase 2) | IC50 [3] | Ki [3] | IC50 [4] | Ki [4] | IC50 [5]

CCCN(CCC)S(=O)(=O)c1ccc(C(=O)O)cc1 [PROBENECID]
Not Active: IC50 [1] | IC50 (Histamine H2 receptor) | IC50 [2] | IC50 (Carbonic anhydrase 2) | IC50 [3] | Ki [3] | IC50 [4] | Ki [4] | IC50 [5]

O=C1CN=C(c2ccccc2Cl)c2cc([N+](=O)[O-])ccc2N1 [CLONAZEPAM]
Not Active: IC50 [1] | IC50 (Histamine H2 receptor) | IC50 [2] | IC50 (Carbonic anhydrase 2) | IC50 [3] | Ki [3] | IC50 [4] | Ki [4] | IC50 [5]

CC(C(=O)O)c1cccc(Oc2ccccc2)c1 (stereo unspecified) [FENOPROFEN]
Not Active: IC50 [1] | IC50 (Histamine H2 receptor) | IC50 [2] | IC50 (Carbonic anhydrase 2) | IC50 [3] | Ki [3] | IC50 [4] | Ki [4] | IC50 [5]

GENTAMICIN
Not Active: IC50 [1] | Ki [1] | IC50 (Histamine H2 receptor) | Ki (Histamine H2 receptor) | IC50 [2] | Ki [2] | IC50 (Carbonic anhydrase 2) | Ki (Carbonic anhydrase 2) | IC50 [3] | Ki [3] | IC50 [4] | Ki [4] | IC50 [5] | Ki [5]
